# Laboratory results: paper PMC12406255, “Engineering Peptide Modulators for T‑Cell Migration by Structural Scaffold Matching” (Journal of Medicinal Chemistry, 2025)
# Positions of bridges follow the written chain, without caps; N, C: chain ends. Non-standard residues stand in square brackets, D forms with d. Residues, ends and D or L forms follow the SMILES beside them. Nle = CCCC[C@H](N)C(=O)O
# Test system: CD3+ lymphocytes
# Test: cells
# Type: cell-based, human
# Details: for % Inhibition of cell migration compared to control, CD3+: normalized to untreated control, mean ± SEM of 4-6 experiments
# Method: 1 Transwell-based migration assay to study lymphocyte transendothelial migration. (A) The general principle of the transwell migration assay is depicted. Endothelial cells (EC) are seeded in transwell inserts and are incubated for 2 days to form an EC monolayer. On the day before the assay, the ECs are cytokine-stimulated to induce the expression of adhesion molecules. In the migration assay, human peripheral blood mononuclear cells (PBMC) are placed into the donor compartment of the transwell setup. After 4 h of incubation time, the migrated cells are harvested from the receiver compartment, stained with fluorescent antibodies and counted using flow cytometry. (B) PBMCs were preincubated with S1P for 1.5 h and then transferred into the donor compartment on top of the EC monolayer. […] Data are shown as mean ± SD of 3 to 5 independent experiments.
# Transwell migration assays were performed similarly as published previously. HMEC-1 cells were seeded at a density of 75,000 cells per well in transwell inserts. Three days after cell seeding, the medium was changed, and the cells were stimulated with 100 ng/mL TNF-α and 20 ng/mL IFN-γ for 16–18 h. On the day of the assay, cells were washed with migration medium (serum-free RPMI medium supplemented with 0.1% BSA) to remove residual cytokines and starved for at least 1 h at 37 °C in migration medium. PBMC were starved for at least 1.5 h in migration medium before addition to the EC. For S1P and lifitegrast-treated samples, the PBMC were preincubated for at least 1.5 h at 37 °C with the ligands before addition to the EC. Pepitem and other peptides were added onto the EC monolayer and preincubated for 15–30 min at 37 °C before the addition of the PBMC. 200,000 PBMC per well were added directly on top of the EC prestimulated with pepitem or other peptides to reach a final volume of 150 μL in the donor compartments. The receiver compartments of the wells were filled with 600 μL RPMI with 20% FBS. After 4 h of migration at 37 °C, the receiver compartment with the migrated cells was collected. The migrated cells were stained with the indicated antibodies: CD3-APC (clone: OKT3, lot: B400127), CD4-PE (clone: OKT4. lot: B379180), CD8-FITC (clone: HIT8a, lot: B370193) from Biolegend and CD3-VioGreen (clone: REA613, lot: 5240502518), CD45RO-FITC (clone: REA611, lot: 5240502519), CD4-PerCP-Vio700 (clone: REA623, lot: 5240506702), CXCR3 PE-Vio615 (clone: REA232, lot: 5240506722), CD196-APC (clone: REA190, lot: 5240506717), CD8-APC-Vio770 (clone: REA734, lot: 5240303993) and CD45RO-PEVio616 (clone: REA611, lot: 5231102514) from Miltenyi Biotec (Bergisch Gladbach, Germany) and counted using precision counting beads (Biolegend) on a CytoflexS flow cytometer (BeckmanCoulter). Data was analyzed using CytExpert (Version 2.4). T cells were gated as CD3^+ cells, T cell subsets were gated as CD4^+ (CD3^+, CD4^+), CD8^+ (CD3^+, CD8^+), memory CD4^+ (CD3^+, CD4^+, CD45RO^+), memory CD8^+ (CD3^+, CD8^+, CD45RO^+) and Th1 cells (CD3^+, CD4^+, CXCR3^+, CCR6^–).
# Data were analyzed using GraphPad Prism software. EC50 values were calculated by three-parameter nonlinear regression analysis. For this, the data points were normalized to the number of migrated cells in untreated (buffer) control samples (100%), and the regression was fitted with the top constraint to 100 and the slope fixed to 1. Statistical significance is indicated in graphs as n.s. not significant, * p < 0.05; ** p < 0.01; *** p < 0.001. The statistical tests used are indicated in the respective figure captions.
structure (smiles),measurement,setting,value
"CCCC[C@@H]1NC(=O)[C@H](C(C)C)NC(=O)[C@H](CCCCN)NC(=O)[C@@H](NC(=O)[C@H](CCC(N)=O)NC(=O)[C@H](CCC(=O)O)NC(C)=O)CSSC[C@@H](C(=O)N[C@@H](CCC(=O)O)C(=O)N[C@@H](CCCCN)C(N)=O)NC(=O)[C@H](CC(N)=O)NC(=O)[C@H](CC(=O)O)NC(=O)[C@H](CC(C)C)NC(=O)[C@@H]2CSSC[C@H](NC1=O)C(=O)N[C@@H](Cc1ccc(O)cc1)C(=O)N[C@@H](C)C(=O)N[C@@H](CCC(N)=O)C(=O)NCC(=O)N[C@@H](C)C(=O)N[C@@H](CCC(=O)O)C(=O)N[C@@H](CC(C)C)C(=O)N1CCC[C@H]1C(=O)N[C@@H](CCC(=O)O)C(=O)N[C@@H](CC(C)C)C(=O)N[C@@H](CC(C)C)C(=O)N[C@@H](CCCNC(=N)N)C(=O)N[C@@H](CCCNC(=N)N)C(=O)N2 [VhTI-pep 2] (Ac-EQCKV[Nle]CYAQGAELPELLRRCLDNCEK-NH2; disulfide 3-25, 7-21)","% Inhibition of cell migration compared to control, CD3+",0.1 μM,28.7 ± 6.4%
same,"% Inhibition of cell migration compared to control, CD3+",1 μM,37.2 ± 6.8%
same,EC50,"EC monolayer preincubated with peptide 15-30 min, healthy-donor PBMC added, 4 h migration, flow cytometry, mean ± SD of 3 to 5 (VhTI-pep 2: 4) independent experiments, read-out: EC50, inhibition of CD3+ lymphocyte migration",10.6 ± 16.5 nM
same,"maximal effect of inhibition of cell migration, CD3+ lymphocytes",from the concentration-response experiment,39.3 ± 8.7%
